Experimental data reported in patent publication US12344597B2, “Alkoxy-substituted pyridinyl derivatives as LPA1 receptor antagonists and their use in the treatment of fibrosis” (IDORSIA PHARMACEUTICALS LTD, priority 2018, dated 2025).

The compounds below were run against human LPA1 receptor (Homo sapiens (Human), UniProt Q92633) (assay: Beta-arrestin recruitment assay to determine IC50 values for human LPAR1). Conditions: antagonist mode, Tango EDG2-bla U2OS cells, LPA 18:1 500 nM final.
Format: cell-based
Summary of the method: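 Tango EDG2-bla U2OS cells: LPA-driven beta-arrestin/TEV protease recruitment releases Gal4-VP16, inducing beta-lactamase reporter read with live-cell substrate. Cells seeded 20 h at 37 °C beforehand. IC50 is antagonist concentration inhibiting 50% of maximal response.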

human LPA1 receptor, sequence (Q92633 whole entry): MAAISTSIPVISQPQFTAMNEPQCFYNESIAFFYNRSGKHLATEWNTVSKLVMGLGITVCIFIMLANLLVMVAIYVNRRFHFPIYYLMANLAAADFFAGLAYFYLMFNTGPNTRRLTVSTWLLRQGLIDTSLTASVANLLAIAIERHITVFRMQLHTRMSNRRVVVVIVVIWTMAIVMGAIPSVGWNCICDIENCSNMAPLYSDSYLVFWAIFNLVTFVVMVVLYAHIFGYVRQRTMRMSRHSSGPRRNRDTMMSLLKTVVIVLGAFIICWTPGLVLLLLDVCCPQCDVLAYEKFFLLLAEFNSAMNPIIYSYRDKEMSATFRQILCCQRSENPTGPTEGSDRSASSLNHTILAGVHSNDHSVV

Compared with `Cc1ccc(NC(=O)C2(c3ccccc3C(C)C)CN(C(=O)NCC(C)(C)C(=O)O)C2)c(OC(F)F)n1` [Ex 17-17, 3-(3-((2-(difluoromethoxy)-6-methylpyridin-3-yl)carbamoyl)-3-(2-isopropylphenyl)azetidine-1-carboxamido)-2,2-dimethylpropanoic acid], `Cc1ccc(NC(=O)C2(c3ccccc3C(C)C)CN(C(=O)N[C@H](C)C(=O)O)C2)c(OC(F)F)n1` [Ex 17-24, (3-((2-(difluoromethoxy)-6-methylpyridin-3-yl)carbamoyl)-3-(2-isopropylphenyl)azetidine-1-carbonyl)-D-alanine] is 7.2-fold higher in IC50: 0.012 µM for the first, 0.086 µM for the second. The first is the more potent here.

Going from `COC(=O)c1ccc(CN2CC(C(=O)Nc3ccc(C)nc3OC(F)F)(c3ccccc3C(C)C)C2)o1` [Ex 11-56, methyl 5-((3-((2-(difluoromethoxy)-6-methylpyridin-3-yl)carbamoyl)-3-(2-isopropylphenyl)azetidin-1-yl)methyl)furan-2-carboxylate] to `CCOC(=O)CC(C)(C)CN1CC(C(=O)Nc2ccc(C)nc2OC(F)F)(c2ccccc2C(C)C)C1` [Ex 11-32, ethyl 4-(3-((2-(difluoromethoxy)-6-methylpyridin-3-yl)carbamoyl)-3-(2-isopropylphenyl)azetidin-1-yl)-3,3-dimethylbutanoate], the IC50 rises from 0.064 µM to 0.805 µM (13-fold).

`Cc1ccc(NC(=O)C2(c3ccccc3C(C)C)CN(C(=O)C3(C(=O)O)CC3)C2)c(OC(F)F)n1` [Ex 12-64, 1-(3-((2-(difluoromethoxy)-6-methylpyridin-3-yl)carbamoyl)-3-(2-isopropylphenyl)azetidine-1-carbonyl)cyclopropane-1-carboxylic acid] and `Cc1ccc(NC(=O)C2(c3ccccc3C(C)C)CN(C(=O)CC3(O)COC3)C2)c(OC(F)F)n1` [Ex 12-13, N-(2-(difluoromethoxy)-6-methylpyridin-3-yl)-1-(2-(3-hydroxyoxetan-3-yl)acetyl)-3-(2-isopropylphenyl)azetidine-3-carboxamide] are within 1.5-fold of each other in IC50: 0.019 µM for the first, 0.017 µM for the second.

Going from `CNCCN1CC(C(=O)Nc2ccc(C)nc2OC(F)F)(c2ccccc2C(C)C)C1` [Ex 11-62, N-(2-(difluoromethoxy)-6-methylpyridin-3-yl)-3-(2-isopropylphenyl)-1-(2-(methylamino)ethyl)azetidine-3-carboxamide] to `Cc1ccc(NC(=O)C2(c3ccccc3C(C)C)CCN(C(=O)CN(CCO)C(=O)OC(C)(C)C)CC2)c(OC(F)F)n1` [Ex 12-49, tert-butyl (2-(4-((2-(difluoromethoxy)-6-methylpyridin-3-yl)carbamoyl)-4-(2-isopropylphenyl)piperidin-1-yl)-2-oxoethyl)(2-hydroxyethyl)carbamate], the IC50 falls from 0.048 µM to 0.03 µM (1.6-fold).

First: Cc1ccc(NC(=O)C2(c3ccccc3C3CCOCC3)CNC2)c(OC(F)F)n1 [Ex 28, N-(2-(difluoromethoxy)-6-methylpyridin-3-yl)-3-(2-(tetrahydro-2H-pyran-4-yl)phenyl)azetidine-3-carboxamide]
Second: Cc1ccc(NC(=O)C2(c3ccccc3C(C)C)CN(C(=O)C[C@@H]3COCCN3)C2)c(OC(F)F)n1 [Ex 12-45, (R)-N-(2-(difluoromethoxy)-6-methylpyridin-3-yl)-3-(2-isopropylphenyl)-1-(2-(morpholin-3-yl)acetyl)azetidine-3-carboxamide]
The IC50 of the first is 2.7-fold lower: 0.023 µM for the first, 0.061 µM for the second.

First: CC(C)c1ccccc1C1(C(=O)Nc2ncc(Cl)cc2OC(F)F)CN(S(N)(=O)=O)C1 [Ex 81-3, N-(5-chloro-3-(difluoromethoxy)pyridin-2-yl)-3-(2-isopropylphenyl)-1-sulfamoylazetidine-3-carboxamide]
Second: Cc1ccc(NC(=O)C2(c3ccccc3C(C)C)CN(C(=O)CNOCc3ccccc3)C2)c(OC(F)F)n1 [Ex 12-134, 1-((benzyloxy)glycyl)-N-(2-(difluoromethoxy)-6-methylpyridin-3-yl)-3-(2-isopropylphenyl)azetidine-3-carboxamide]
The IC50 of the first is 3-fold lower: 0.002 µM for the first, 0.006 µM for the second.

Going from `COC(=O)C(C)(C)CC(=O)N1CC(C(=O)Nc2ncc(Br)cc2OC(F)F)(c2ccccc2C(C)C)C1` [Ex 79-1, Methyl 4-(3-((5-bromo-3-(difluoromethoxy)pyridin-2-yl)carbamoyl)-3-(2-isopropylphenyl)azetidin-1-yl)-2,2-dimethyl-4-oxobutanoate] to `Cc1ccc(NC(=O)C2(c3ccccc3C(C)C)CN(C(=O)CNC[C@H](C)O)C2)c(OC(F)F)n1` [Ex 12-56, (S)-N-(2-(difluoromethoxy)-6-methylpyridin-3-yl)-1-((S)-(2-hydroxypropyl)glycyl)-3-(2-isopropylphenyl)azetidine-3-carboxamide], the IC50 falls from 0.065 µM to 0.007 µM (9.3-fold).

`Cc1ccc(NC(=O)C2(c3ccccc3C(C)C)CN(CCC(C)(C)C(N)=O)C2)c(OC(F)F)n1` [Ex 11-93, 1-(4-amino-3,3-dimethyl-4-oxobutyl)-N-(2-(difluoromethoxy)-6-methylpyridin-3-yl)-3-(2-isopropylphenyl)azetidine-3-carboxamide] and `Cc1cnc(NC(=O)C2(c3ccccc3C(C)C)CN(C(=O)OCC(=O)O)C2)c(OC(F)F)c1` [Ex 83-2, 2-((3-((3-(difluoromethoxy)-5-methylpyridin-2-yl)carbamoyl)-3-(2-isopropylphenyl)azetidine-1-carbonyl)oxy)acetic acid] are within 1.5-fold of each other in IC50: 0.065 µM for the first, 0.088 µM for the second.

`COC(=O)[C@@H](NC(=O)N1CC(C(=O)Nc2ccc(C)nc2OC(F)F)(c2ccccc2C(C)C)C1)C(C)C` [Ex 17-6, methyl (3-((2-(difluoromethoxy)-6-methylpyridin-3-yl)carbamoyl)-3-(2-isopropylphenyl)azetidine-1-carbonyl)-L-valinate] and `COC(=O)c1n[nH]cc1CN1CC(C(=O)Nc2ccc(C)nc2OC(F)F)(c2ccccc2C(C)C)C1` [Ex 11-37, methyl 4-((3-((2-(difluoromethoxy)-6-methylpyridin-3-yl)carbamoyl)-3-(2-isopropylphenyl)azetidin-1-yl)methyl)-1H-pyrazole-3-carboxylate] are within 1.5-fold of each other in IC50: 0.009 µM for the first, 0.006 µM for the second.

`COC(=O)[C@H]1C[C@H]1C(=O)N1CC(C(=O)Nc2ccc(C)nc2OC(F)F)(c2ccccc2C(C)C)C1` [Ex 12-94, methyl (1S,2R)-2-(3-((2-(difluoromethoxy)-6-methylpyridin-3-yl)carbamoyl)-3-(2-isopropylphenyl)azetidine-1-carbonyl)cyclopropane-1-carboxylate] and `COc1nc(Cl)ccc1NC(=O)C1(c2ccccc2C(C)C)CN(C(=O)CCC(=O)O)C1` [Ex 12-70, 4-(3-((6-chloro-2-methoxypyridin-3-yl)carbamoyl)-3-(2-isopropylphenyl)azetidin-1-yl)-4-oxobutanoic acid] are within 1.5-fold of each other in IC50: 0.051 µM for the first, 0.06 µM for the second.

Compared with `COCCNCC(=O)N1CC(C(=O)Nc2ccc(C)nc2OC(F)F)(c2ccccc2C(C)C)C1` [Ex 12-54, N-(2-(difluoromethoxy)-6-methylpyridin-3-yl)-3-(2-isopropylphenyl)-1-((2-methoxyethyl)glycyl)azetidine-3-carboxamide], `Cc1cnc(NC(=O)C2(c3ccccc3C(C)C)CN(C(=O)CC3(C(=O)O)CCC3)C2)c(OC(F)F)c1` [Ex 79-7, 1-(2-(3-((3-(difluoromethoxy)-5-methylpyridin-2-yl)carbamoyl)-3-(2-isopropylphenyl)azetidin-1-yl)-2-oxoethyl)cyclobutane-1-carboxylic acid] is 6.1-fold higher in IC50: 0.01 µM for the first, 0.061 µM for the second. The first is the more potent here.

Compared with `Cc1ccc(NC(=O)C2(c3ccccc3C(C)C)CN(c3ncc(C(=O)O)cn3)C2)c(OC(F)F)n1` [Ex 18-5, 2-(3-((2-(difluoromethoxy)-6-methylpyridin-3-yl)carbamoyl)-3-(2-isopropylphenyl)azetidin-1-yl)pyrimidine-5-carboxylic acid], `CCCc1ccccc1C1(C(=O)Nc2ccc(C)nc2OC(F)F)CNC1` [Ex 29, N-(2-(difluoromethoxy)-6-methylpyridin-3-yl)-3-(2-propylphenyl)azetidine-3-carboxamide] is 38-fold higher in IC50: 0.011 µM for the first, 0.42 µM for the second. The first is the more potent here.

First: Cc1ccc(NC(=O)C2(c3ccccc3C3CCOCC3)CN(c3nc(C(=O)O)co3)C2)c(OC(F)F)n1 [Ex 32, 2-(3-((2-(difluoromethoxy)-6-methylpyridin-3-yl)carbamoyl)-3-(2-(tetrahydro-2H-pyran-4-yl)phenyl)azetidin-1-yl)oxazole-4-carboxylic acid]
Second: CC(C)c1ccccc1C1(C(=O)Nc2ncc(Cl)cc2OC(F)F)CN(CCC(C)(C)C(=O)O)C1 [Ex 78-2, 4-(3-((5-chloro-3-(difluoromethoxy)pyridin-2-yl)carbamoyl)-3-(2-isopropylphenyl)azetidin-1-yl)-2,2-dimethylbutanoic acid]
The IC50 of the first is 26-fold higher: 0.447 µM for the first, 0.017 µM for the second. The second is the more potent here.

Compared with “N-(2-(difluoromethoxy)-6-methylpyridin-3-yl)-1-(3-(hydroxyamino)propanoyl)-3-(2-isopropylphenyl)azetidine-3-carboxamide [Ex 12-133]”, `CC(=O)N1CC(C(=O)Nc2ccc(C)nc2OC(F)F)(c2ccccc2C(C)C)C1` [Ex 12-2, 1-acetyl-N-(2-(difluoromethoxy)-6-methylpyridin-3-yl)-3-(2-isopropylphenyl)azetidine-3-carboxamide] is 14-fold lower in IC50: 0.14 µM for the first, 0.01 µM for the second.

Going from `Cc1ccc(NC(=O)C2(c3ccccc3C(C)C)CN(C(=O)CC3(C(=O)O)CCOCC3)C2)c(OC(F)F)n1` [Ex 12-122, 4-(2-(3-((2-(difluoromethoxy)-6-methylpyridin-3-yl)carbamoyl)-3-(2-isopropylphenyl)azetidin-1-yl)-2-oxoethyl)tetrahydro-2H-pyran-4-carboxylic acid] to `Cc1ccc(NC(=O)C2(c3ccccc3C(C)C)CN(CC(C)(C)CC(=O)O)C2)c(OC(F)F)n1` [Ex 11-33, 4-(3-((2-(difluoromethoxy)-6-methylpyridin-3-yl)carbamoyl)-3-(2-isopropylphenyl)azetidin-1-yl)-3,3-dimethylbutanoic acid], the IC50 falls from 0.015 µM to 0.008 µM (1.9-fold). The second is the more potent here.

Work on `Cc1ccc(NC(=O)C2(c3ccccc3C(C)C)CN(S(=O)(=O)CC3(C(=O)O)COC3)C2)c(OC(F)F)n1` [Ex 13-16, 3-(((3-((2-(difluoromethoxy)-6-methylpyridin-3-yl)carbamoyl)-3-(2-isopropylphenyl)azetidin-1-yl)sulfonyl)methyl)oxetane-3-carboxylic acid] yielded an IC50 of 0.016 µM.
